target: T1, PI3Kα H1047R (Homo sapiens, UniProt P42336, H1047R); experiment: PI3Kα H1047R mutant in vitro cell based assay, MDA-MB-453 cells (AlphaLisa SureFire); settings: MDA-MB-453 cell line, 0% FBS, 3 hours treatment
T1 construct: The MDA-MB-453 (ATCC-HTB-131) cell line (PI3Kα H1047R); host or cells: MDA-MB-453
Summary of the method: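 MDA-MB-453 cells (endogenous PI3Kα H1047R) were treated for 3 h in serum-free MEM containing 1 μg/mL insulin, with 10-point 1:3 dilutions in 0.3% DMSO. Lysates were read by AlphaLisa SureFire. IC50 came from a 4-parameter logistic fit of duplicate % inhibition, normalized to DMSO (max) and 1 μM GDC-0032 (min).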

T1 sequence (P42336 whole entry H1047R): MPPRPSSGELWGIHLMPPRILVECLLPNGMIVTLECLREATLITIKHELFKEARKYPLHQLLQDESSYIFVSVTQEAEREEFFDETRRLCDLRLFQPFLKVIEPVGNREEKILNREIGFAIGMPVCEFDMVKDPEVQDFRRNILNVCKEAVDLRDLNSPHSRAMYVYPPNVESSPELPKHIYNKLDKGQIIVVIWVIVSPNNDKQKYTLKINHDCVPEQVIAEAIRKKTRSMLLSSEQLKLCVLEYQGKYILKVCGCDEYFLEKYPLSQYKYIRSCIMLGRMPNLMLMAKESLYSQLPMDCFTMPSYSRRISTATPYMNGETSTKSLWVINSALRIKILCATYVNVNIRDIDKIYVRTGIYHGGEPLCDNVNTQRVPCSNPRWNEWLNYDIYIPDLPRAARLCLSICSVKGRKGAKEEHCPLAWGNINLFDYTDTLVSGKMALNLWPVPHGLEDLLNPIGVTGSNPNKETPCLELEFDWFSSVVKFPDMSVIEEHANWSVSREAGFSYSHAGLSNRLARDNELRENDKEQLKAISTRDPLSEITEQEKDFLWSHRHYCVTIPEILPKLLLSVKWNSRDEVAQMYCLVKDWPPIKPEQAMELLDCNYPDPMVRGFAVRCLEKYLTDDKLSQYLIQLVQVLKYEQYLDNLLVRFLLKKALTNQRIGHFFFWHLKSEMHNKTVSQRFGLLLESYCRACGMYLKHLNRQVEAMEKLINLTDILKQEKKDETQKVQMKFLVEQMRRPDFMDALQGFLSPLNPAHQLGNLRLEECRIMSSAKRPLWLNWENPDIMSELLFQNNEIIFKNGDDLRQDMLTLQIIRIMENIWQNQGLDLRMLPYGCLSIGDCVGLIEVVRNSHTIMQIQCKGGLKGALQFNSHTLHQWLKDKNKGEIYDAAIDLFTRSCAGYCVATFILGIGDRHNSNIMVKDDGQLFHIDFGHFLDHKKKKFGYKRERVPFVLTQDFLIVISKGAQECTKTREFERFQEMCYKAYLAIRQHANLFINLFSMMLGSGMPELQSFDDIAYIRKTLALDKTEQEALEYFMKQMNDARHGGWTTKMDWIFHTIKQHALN
T1 sequence (P27986 whole entry partner): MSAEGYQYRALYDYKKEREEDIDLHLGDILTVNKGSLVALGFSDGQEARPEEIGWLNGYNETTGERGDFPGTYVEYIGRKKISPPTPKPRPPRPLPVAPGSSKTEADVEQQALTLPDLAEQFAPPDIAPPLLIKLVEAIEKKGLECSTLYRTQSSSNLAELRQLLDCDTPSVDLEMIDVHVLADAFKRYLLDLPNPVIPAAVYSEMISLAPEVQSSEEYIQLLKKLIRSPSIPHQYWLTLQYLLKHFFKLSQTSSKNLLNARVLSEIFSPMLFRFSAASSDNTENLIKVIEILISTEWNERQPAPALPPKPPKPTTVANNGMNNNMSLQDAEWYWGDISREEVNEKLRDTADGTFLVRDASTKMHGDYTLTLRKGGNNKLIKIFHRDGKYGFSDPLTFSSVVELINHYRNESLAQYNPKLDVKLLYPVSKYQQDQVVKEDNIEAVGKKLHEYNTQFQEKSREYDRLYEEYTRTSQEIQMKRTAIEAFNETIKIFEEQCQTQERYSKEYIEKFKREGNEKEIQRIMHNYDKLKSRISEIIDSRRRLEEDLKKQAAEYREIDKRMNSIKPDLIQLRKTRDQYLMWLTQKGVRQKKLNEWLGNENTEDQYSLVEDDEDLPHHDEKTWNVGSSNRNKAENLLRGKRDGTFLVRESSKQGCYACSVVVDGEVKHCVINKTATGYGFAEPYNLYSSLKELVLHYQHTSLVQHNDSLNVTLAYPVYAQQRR

| IC50 [nM] | Compound |
| --- | --- |
| < 100 | CC(=O)Nc1ccc(-c2oc3c([C@@H](C)Oc4ccc(Cl)nc4C(N)=O)cc(C)cc3c(=O)c2C)cc1 [Example 58C, 3-[(1R)-1-[2-(4-Acetamidophenyl)-3,6-dimethyl-4-oxo-chromen-8-yl]ethoxy]-6-chloro-pyridine-2-carboxamide] |
| < 100 | Cc1cc([C@@H](C)Oc2ccc(Cl)nc2-c2noc(=O)[nH]2)c2oc(-c3ccc4c(c3)OC(F)(F)O4)c(C)c(=O)c2c1 [Example 46A, 3-[6-Chloro-3-[(1R)-1-[2-(2,2-difluoro-1,3-benzodioxol-5-yl)-3,6-dimethyl-4-oxo-chromen-8-yl]ethoxy]-2-pyridyl]-4H-1,2,4-oxadiazol-5-one] |
| < 100 | Cc1cc([C@@H](C)Oc2ccc(Br)nc2C(N)=O)c2oc(-c3ccc4nn(C)cc4c3)c(C)c(=O)c2c1 [Example 81C, 6-Bromo-3-[(1R)-1-[3,6-dimethyl-2-(2-methylindazol-5-yl)-4-oxo-chromen-8-yl]ethoxy]pyridine-2-carboxamide] |
| < 100 | Cc1cc([C@@H](C)Oc2ccc(Cl)nc2C(N)=O)c2oc(-c3cc(F)c4nn(C)cc4c3)c(C)c(=O)c2c1 [Example 17B, 6-Chloro-3-[(1R)-1-[2-(7-fluoro-2-methyl-indazol-5-yl)-3,6-dimethyl-4-oxo-chromen-8-yl]ethoxy]pyridine-2-carboxamide] |
